“Also recorded” adds a separate entry of the source.
Assays:
Lassa fever = details: only if administered early (up to six days) in the course of illness; cited from earlier work
[1] = test system: SARS coronavirus strain Urbani; type: cell-based, SARS CoV strain Urbani or HK
[2] = test system: mouse hepatitis virus strain A59; type: cell-based, Mouse hepatitis virus (MHV) strain A59
HIV-1 = details: 100 mg/day, clinical trial, infected individuals; cited from earlier work
HIV-1 virion:cell fusion = details: read-out: concentration giving 50% inhibition of HIV-1 virion:cell fusion; cited from earlier work

Q: With NC(=O)c1ncn([C@@H]2O[C@H](CO)[C@@H](O)[C@H]2O)n1 [ribavirin] as the molecule, how does the “efficacy in the treatment of Lassa fever” value (Lassa fever) read?
A: effective

Q: For “AACEVAKNLNESLIDLQELGKYEQYIKW [SEQ ID NO:29]”, which “inhibition of plaque formation by SARS CoV” value (from here on “inhibition … by SARS CoV”) [1] is on record?
A: some inhibition

Q: Which “inhibition of plaque formation by MHV” value [2] does the source give for GNHILSLVQNAPYGLYFIHFSW [SEQ IDS NO:22] here?
A: can inhibit plaque formation by MHV; also recorded: more efficient

Q: Which “inhibition … by SARS CoV” value [1] does the source give for GVFVFNGTSWFITQRNFFS [SEQ ID NO:25] here?
A: inhibited plaque formation

Q: Which “inhibition of plaque formation by MHV” value [2] does the source give for “GYFVQDDGEWKFTGSSYYY [SEQ ID NO:23, synthetic peptide from the MHV FIR]” here?
A: can inhibit plaque formation by MHV

Q: Which “inhibition … by SARS CoV” value [1] does the source give for GYHLMSFPQAAPHGVVFLHVTY [SEQ ID NO:24] here?
A: inhibited plaque formation

Q: For MFPPWSAAAGVPFSLSVQY [SEQ ID NO:26], which “inhibition of plaque formation by MHV” value [2] is on record?
A: some inhibition

Q: With MYKTPTLKYFGGFNFSQIL [SEQ ID NO:28] as the molecule, how does the “inhibition … by SARS CoV” value [1] read?
A: some inhibition

Q: Which “inhibition of plaque formation by MHV” value [2] does the source give for “QDAIKKLNESYINLKEVGTYEMYVKW [SEQ ID NO:27, peptide from the carboxyl terminal helix of MHV S]” here?
A: some inhibition

Q: For enfuvirtide, which “reduction in plasma HIV-1 load” value (HIV-1) is on record?
A: approximately 100 fold

Q: And the IC50 (HIV-1 virion:cell fusion)?
A: 1.7 nM
